What was measured:
[1] = Weight loss in Engerix-B / TiterQuil-1055 study; conditions: mice
Stability at 37° C. = assay type: physicochemical; conditions: for degradation: after two weeks at 37° C.
Method: (§1) Natural and synthetic QS-21 (SQS-21 or SAPONEX®) and a variety of analogs were tested for hemolytic activity.

[2] = Pilot pharmacology/toxicology study with Adacel, QS-21 and TiterQuil-1055; conditions: for changes in blood chemistry or hematology results: SC days 1 and 15, bled day 22 (group 7 day 29); for weight loss (body weight): mice, 50 mcg TiterQuil-1055, 20 mcg QS-21; for liver histopathology (hepatocellular cytoplasmic vacuolization): sacrificed day 22, 33 tissues examined
pertussis toxin = experiment: Adacel (Tdap vaccine) immunogenicity in mice, anti-PT antibody in serum; assay type: in vivo; conditions: for Antibody levels augmented compared to immunization with Adacel alone: adjuvant with Adacel
hemolysis = experiment: Hemolytic assay; assay type: cell-based
Method: as §1

[3] = Companion toxicity study, body mass three days after immunization
Method: as §1

[4] = cited from earlier work
[5] = groups of 5 mice, 50 mcg TiterQuil-1055, 20 mcg QS-21, Adacel 2.5 mcg pertussis toxin
[6] = 50 mcg TiterQuil-1055, 20 mcg QS-21, Adacel 2.5 mcg pertussis toxin
[7] = groups of 5 mice, 2 weeks after second SC immunization

| Compound | weight loss ([1]; 30 mcg TiterQuil-1055 dose) | weight loss ([1]; 100 mcg TiterQuil-1055 dose) [%] | weight loss ([1]; 300 mcg TiterQuil-1055 dose) [%] | stability relative to QS-21 (Stability at 37° C.) | degradation (Stability at 37° C.) | changes in blood chemistry or hematology results [2, 5] | weight loss ([2]; groups of 5 mice, SC days 1 and 15, weighed daily, 50 mcg TiterQuil-1055, 20 mcg QS-21, Adacel 2.5 mcg pertussis toxin) | weight loss (body weight) [2] | liver histopathology (hepatocellular cytoplasmic vacuolization) [2, 6] | Antibody levels (pertussis toxin; 0.5 mcg dose of Adacel, alone or with TiterQuil-1055, groups of 5 mice, 2 weeks after second SC immunization) | Antibody levels 2 weeks later (pertussis toxin; TiterQuil-1055 with Adacel, 2 weeks after the 2-week post-second-immunization bleed) | Antibody levels augmented compared to immunization with Adacel alone (pertussis toxin; [7]) [fold] | hemolytic activity (hemolysis) | body mass gained on average ([3]; young mice) [%] | tolerated (maximum) dose in cancer patients ([4]; cancer patients, above this dose local and systemic side effects) [µg] | maximum dose for healthy patients ([4]; healthy patients) [µg] | highest practical tolerable dose ([4]; well (non-cancer) adult and child recipients) [µg] | body mass lost on average ([3]; 20 mcg QS-21) |
| --- | --- | --- | --- | --- | --- | --- | --- | --- | --- | --- | --- | --- | --- | --- | --- | --- | --- | --- |
| CC1O[C@@H](OC2C(O)[C@@H](NC(=O)CCCCCCCCCCC(=O)O)C(CO)O[C@H]2OC(=O)[C@]23CCC(C)(C)CC2C2=CCC4C5(C)CC[C@H](O)C(C)(C=O)C5CC[C@]4(C)C2(C)CC3O)C(O)C(O)[C@H]1O[C@@H]1OC[C@@H](O)C(O)C1O (stereo partly drawn) [Compound I-4] | No weight loss | 4 | 5 | increased stability | without detectable degradation | No changes | no other mice | No weight loss | No changes at all | 52,344 | further increased | 70 | much lower or undetectable hemolytic activity | 5 |  |  |  |  |
| QS-21 [reference compound] |  |  |  |  | 20% | No changes |  | 8-9% | Mild vacuolar changes |  |  | 10 | highly hemolytically active |  | 100 to 150 | ~50 | 25 to 50 | 8-10% |
